Measured values published in patent US4981848A, “Alpha-adrenergic receptor antagonists” (SmithKline Beecham Corporation, priority 1989, dated 1991).

Test system: spontaneously hypertensive rats
Assay: antihypertensive activity in the spontaneously hypertensive rat model
Type: in vivo
Conditions: oral administration at 20 mg/kg
Protocol: The antihypertensive activity of certain compounds of the present invention was determined using the spontaneously hypertensive rat model. The details of this in vivo test are found in Roesler, J. M., et al., J. Pharmacol. Exp. Ther., 236:1-7 (1986).

For “N-[(7-Chloro-3,4,5,6-tetrahydro-4-methylthieno[4,3,2-ef][3]benzazepin-2-yl)methyl]2-methylpropanesulfonamide [Example 7]”, the arterial blood pressure was “dose related reduction in arterial blood pressure”.
